Measurements taken from PubChem BioAssay AID248 (DTP/NCI, 2004).
Inconclusive results and toxic doses are left out. Rule as the data show it: active = T/C of 150% or more; inactive = T/C below 125%.

System: L1210 leukemia ip in BDF1 mice, survival T/C
Test: NCI In Vivo Anticancer Drug Screen. Data for tumor model L1210 Leukemia (intraperitoneal) in B6D2F1 (BDF1) mice
Details: endpoint: mean survival time, higher = longer survival
Outline: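 In this screen, tumor-bearing mice given compound are compared to those given vehicle, and their survival values are reported as a treated-to-control quotient.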

[1] = dose: 100.0 mg/kg/injection, schedule: Q01DX009 (ip), vehicle: saline with Tween-80
[2] = dose: 100.0 mg/kg/injection, schedule: Q04DX003 (ip), vehicle: saline with Tween-80
[3] = dose: 200.0 mg/kg/injection, schedule: Q01DX009 (ip), vehicle: saline with Tween-80
[4] = dose: 200.0 mg/kg/injection, schedule: Q04DX003 (ip), vehicle: saline with Tween-80
[5] = dose: 400.0 mg/kg/injection, schedule: Q04DX003 (ip), vehicle: saline with Tween-80
[6] = dose: 100.0 mg/kg/injection, schedule: Q01DX001 (ip), vehicle: saline
[7] = dose: 100.0 mg/kg/injection, schedule: Q04DX003 (ip), vehicle: saline
[8] = dose: 200.0 mg/kg/injection, schedule: Q01DX001 (ip), vehicle: saline
[9] = dose: 200.0 mg/kg/injection, schedule: Q04DX003 (ip), vehicle: saline
[10] = dose: 400.0 mg/kg/injection, schedule: Q01DX001 (ip), vehicle: saline
[11] = dose: 400.0 mg/kg/injection, schedule: Q04DX003 (ip), vehicle: saline

Measured: T/C

COc1cc(/C=N/NC(N)=S)cc(OC)c1OC
inactive: [1] 93 % of control | [2] 108 % of control | [3] 98 % of control | [4] 110 % of control | dose: 400.0 mg/kg/injection, schedule: Q01DX009 (ip), vehicle: saline with Tween-80 104 % of control | [5] 106 % of control

Oc1ccc(C2(CCl)OCCO2)cc1
inactive: dose: 25.0 mg/kg/injection, schedule: Q01DX001 (ip), vehicle: saline with Tween-80 98 % of control | dose: 50.0 mg/kg/injection, schedule: Q01DX001 (ip), vehicle: saline with Tween-80 104 % of control | dose: 100.0 mg/kg/injection, schedule: Q01DX001 (ip), vehicle: saline with Tween-80 107 % of control

O=C1NC(CN2CCCC(O)C2)C(=O)NC1CN1CCCC(O)C1 (centres undefined) (tested in a mixture with another compound)
inactive: dose: 25.0 mg/kg/injection, schedule: Q01DX009 (ip), vehicle: water 104 % of control | dose: 50.0 mg/kg/injection, schedule: Q01DX009 (ip), vehicle: water 104 % of control | dose: 100.0 mg/kg/injection, schedule: Q01DX009 (ip), vehicle: water 112 % of control | dose: 200.0 mg/kg/injection, schedule: Q01DX009 (ip), vehicle: water 108 % of control

CC(C)CC[n+]1ccc(C(N)=O)cc1
inactive: [6] 97 % of control | [7] 98 % of control | [8] 100 % of control | [9] 97 % of control | [10] 95 % of control | [11] 104 % of control

O=P(N=P(c1ccccc1)(c1ccccc1)c1ccccc1)(c1ccccc1)c1ccccc1
inactive: [6] 97 % of control | [8] 97 % of control | [10] 97 % of control

C=CCSc1ccccc1Cl
inactive: [6] 100 % of control | [8] 103 % of control | [10] 103 % of control

CCCCCC(C(C)=O)(C1=NC(C)(C)CC(C)O1)c1ccccc1 (centres undefined)
inactive: dose: 100.0 mg/kg/injection, schedule: Q04DX003 (ip), vehicle: saline sonified 103 % of control | dose: 200.0 mg/kg/injection, schedule: Q04DX003 (ip), vehicle: saline sonified 120 % of control | dose: 400.0 mg/kg/injection, schedule: Q04DX003 (ip), vehicle: saline sonified 111 % of control

O=c1[nH]c2ccccc2nc1CBr
inactive: dose: 12.5 mg/kg/injection, schedule: Q04DX003 (ip), vehicle: saline with Tween-80 94 % of control | dose: 25.0 mg/kg/injection, schedule: Q04DX003 (ip), vehicle: saline with Tween-80 89 % of control | dose: 50.0 mg/kg/injection, schedule: Q04DX003 (ip), vehicle: saline with Tween-80 86 % of control

Nc1ccc2c(c1)C(O)c1cc(Br)ccc1-2 (centres undefined)
inactive: dose: 100.0 mg/kg/injection, schedule: Q01DX001 (ip), vehicle: carboxymethylcellulose (CMC) 108 % of control | dose: 200.0 mg/kg/injection, schedule: Q01DX001 (ip), vehicle: carboxymethylcellulose (CMC) 100 % of control | dose: 400.0 mg/kg/injection, schedule: Q01DX001 (ip), vehicle: carboxymethylcellulose (CMC) 105 % of control

Nc1ncnc2c1ccn2C1CCC(CO)C1 (centres undefined)
inactive: dose: 50.0 mg/kg/injection, schedule: Q01DX001 (ip), vehicle: other 108 % of control | dose: 100.0 mg/kg/injection, schedule: Q01DX001 (ip), vehicle: other 103 % of control | dose: 200.0 mg/kg/injection, schedule: Q01DX001 (ip), vehicle: other 101 % of control

CC(C)=CCC(CC=C(C)C)c1ccncc1 (tested in a mixture with another compound)
inactive: [6] 96 % of control | [8] 98 % of control

CC1=C(C)CC2C(=O)OC(=O)C2C1 (centres undefined)
inactive: dose: 100.0 mg/kg/injection, schedule: Q01DX009 (ip), vehicle: saline 98 % of control | dose: 100.0 mg/kg/injection, schedule: Q04DX003 (ip), vehicle: Klucel (hydroxypropylcellulose) (HPC) 106 % of control | [7] 98 % of control | dose: 200.0 mg/kg/injection, schedule: Q01DX009 (ip), vehicle: saline 102 % of control | dose: 200.0 mg/kg/injection, schedule: Q04DX003 (ip), vehicle: Klucel (hydroxypropylcellulose) (HPC) 95 % of control | [9] 105 % of control | dose: 400.0 mg/kg/injection, schedule: Q01DX009 (ip), vehicle: saline 98 % of control | dose: 400.0 mg/kg/injection, schedule: Q04DX003 (ip), vehicle: Klucel (hydroxypropylcellulose) (HPC) 98 % of control | [11] 105 % of control

O=C1CCc2c1cccc2[N+](=O)[O-]
inactive: dose: 100.0 mg/kg/injection, schedule: Q04DX002 (ip), vehicle: saline with Tween-80 102 % of control | dose: 200.0 mg/kg/injection, schedule: Q04DX002 (ip), vehicle: saline with Tween-80 102 % of control | dose: 400.0 mg/kg/injection, schedule: Q04DX002 (ip), vehicle: saline with Tween-80 102 % of control

Cc1cc(C(=O)Nc2ccc(NC3=NCCN3)cc2)c(C)cc1C(=O)Nc1ccc(NC2=NCCN2)cc1
inactive: dose: 1.88 mg/kg/injection, schedule: Q01DX Z (ip), vehicle: saline 93 % of control | dose: 3.75 mg/kg/injection, schedule: Q01DX Z (ip), vehicle: saline 98 % of control | dose: 7.5 mg/kg/injection, schedule: Q01DX Z (ip), vehicle: saline 94 % of control | dose: 15.0 mg/kg/injection, schedule: Q01DX Z (ip), vehicle: saline 108 % of control | dose: 30.0 mg/kg/injection, schedule: Q01DX Z (ip), vehicle: saline 103 % of control

CC[C@@H]1CN(C)[C@H]2Cc3c([nH]c4ccccc34)C(=O)C[C@H]1C2C(=O)OC (some centres undefined)
inactive: dose: 75.0 mg/kg/injection, schedule: Q01DX001 (ip), vehicle: carboxymethylcellulose (CMC) 97 % of control | dose: 150.0 mg/kg/injection, schedule: Q01DX001 (ip), vehicle: carboxymethylcellulose (CMC) 95 % of control | dose: 300.0 mg/kg/injection, schedule: Q01DX001 (ip), vehicle: carboxymethylcellulose (CMC) 95 % of control

Cc1cc(C)c(-c2c(O)c(Br)c(-c3c(C)cc(C)c(Br)c3C)c(O)c2Br)c(C)c1Br
inactive: dose: 12.5 mg/kg/injection, schedule: Q01DX009 (ip), vehicle: Klucel (hydroxypropylcellulose) (HPC) 100 % of control | dose: 12.5 mg/kg/injection, schedule: Q04DX003 (ip), vehicle: Klucel (hydroxypropylcellulose) (HPC) 100 % of control | dose: 25.0 mg/kg/injection, schedule: Q01DX009 (ip), vehicle: Klucel (hydroxypropylcellulose) (HPC) 103 % of control | dose: 25.0 mg/kg/injection, schedule: Q04DX003 (ip), vehicle: Klucel (hydroxypropylcellulose) (HPC) 97 % of control | dose: 50.0 mg/kg/injection, schedule: Q01DX009 (ip), vehicle: Klucel (hydroxypropylcellulose) (HPC) 94 % of control | dose: 50.0 mg/kg/injection, schedule: Q04DX003 (ip), vehicle: Klucel (hydroxypropylcellulose) (HPC) 102 % of control | dose: 75.0 mg/kg/injection, schedule: Q01DX009 (ip), vehicle: Klucel (hydroxypropylcellulose) (HPC) 120 % of control

CCOC(CCc1cnc[nH]c1=O)OCC
inactive: [7] 106 % of control | [9] 97 % of control | [11] 93 % of control

COc1ccc(/C=N\NC(=O)CNC(=O)Nc2cccc([N+](=O)[O-])c2)cc1O
inactive: dose: 50.0 mg/kg/injection, schedule: Q01DX009 (ip), vehicle: saline with Tween-80 93 % of control | [1] 100 % of control | [3] 96 % of control

CCCCCCCCP(=O)(N1CC1)N1CC1
inactive: dose: 5.0 mg/kg/injection, schedule: Q01DX Z (ip), vehicle: carboxymethylcellulose (CMC) 107 % of control | dose: 6.25 mg/kg/injection, schedule: Q01DX Z (ip), vehicle: carboxymethylcellulose (CMC) 98 % of control | dose: 10.0 mg/kg/injection, schedule: Q01DX Z (ip), vehicle: carboxymethylcellulose (CMC) 102 % of control | dose: 12.5 mg/kg/injection, schedule: Q01DX Z (ip), vehicle: carboxymethylcellulose (CMC) 110 % of control | dose: 20.0 mg/kg/injection, schedule: Q01DX Z (ip), vehicle: carboxymethylcellulose (CMC) 110 % of control | dose: 25.0 mg/kg/injection, schedule: Q01DX Z (ip), vehicle: carboxymethylcellulose (CMC) 113 % of control | dose: 40.0 mg/kg/injection, schedule: Q01DX Z (ip), vehicle: carboxymethylcellulose (CMC) 117 % of control | dose: 50.0 mg/kg/injection, schedule: Q01DX Z (ip), vehicle: carboxymethylcellulose (CMC) 120 % of control

CCN(CC)CCN1C(=O)C2CCCCC2C1=O (centres undefined)
inactive: [2] 101 % of control | [4] 101 % of control | [5] 97 % of control

CCC1CCC(NC(=O)NCCF)CC1 (centres undefined)
inactive: dose: 75.0 mg/kg/injection, schedule: Q01DX001 (ip), vehicle: other 98 % of control
